Results reported in ChEMBL document CHEMBL2406948, “Skeletal rearrangement of seven-membered iminosugars: synthesis of (-)-adenophorine, (-)-1-epi-adenophorine and derivatives and evaluation as glycosidase inhibitors” (Bioorg Med Chem, 2013).

Legend:
[1] = target: Alpha-galactosidase (Coffea arabica) (UniProt Q42656); assay: Inhibition of coffee bean alpha-galactosidase at 1000 uM
[2] = test system: Aspergillus niger; assay: Inhibition of Aspergillus niger beta-glucosidase at 1000 uM
[3] = test system: Prunus dulcis; assay: Inhibition of almond beta-glucosidase at 1000 uM
[4] = target: T1, Alpha-glucosidase (Aspergillus niger) (UniProt P56526); assay: Inhibition of Aspergillus niger alpha-glucosidase at 1000 uM
T1 sequence (whole entry): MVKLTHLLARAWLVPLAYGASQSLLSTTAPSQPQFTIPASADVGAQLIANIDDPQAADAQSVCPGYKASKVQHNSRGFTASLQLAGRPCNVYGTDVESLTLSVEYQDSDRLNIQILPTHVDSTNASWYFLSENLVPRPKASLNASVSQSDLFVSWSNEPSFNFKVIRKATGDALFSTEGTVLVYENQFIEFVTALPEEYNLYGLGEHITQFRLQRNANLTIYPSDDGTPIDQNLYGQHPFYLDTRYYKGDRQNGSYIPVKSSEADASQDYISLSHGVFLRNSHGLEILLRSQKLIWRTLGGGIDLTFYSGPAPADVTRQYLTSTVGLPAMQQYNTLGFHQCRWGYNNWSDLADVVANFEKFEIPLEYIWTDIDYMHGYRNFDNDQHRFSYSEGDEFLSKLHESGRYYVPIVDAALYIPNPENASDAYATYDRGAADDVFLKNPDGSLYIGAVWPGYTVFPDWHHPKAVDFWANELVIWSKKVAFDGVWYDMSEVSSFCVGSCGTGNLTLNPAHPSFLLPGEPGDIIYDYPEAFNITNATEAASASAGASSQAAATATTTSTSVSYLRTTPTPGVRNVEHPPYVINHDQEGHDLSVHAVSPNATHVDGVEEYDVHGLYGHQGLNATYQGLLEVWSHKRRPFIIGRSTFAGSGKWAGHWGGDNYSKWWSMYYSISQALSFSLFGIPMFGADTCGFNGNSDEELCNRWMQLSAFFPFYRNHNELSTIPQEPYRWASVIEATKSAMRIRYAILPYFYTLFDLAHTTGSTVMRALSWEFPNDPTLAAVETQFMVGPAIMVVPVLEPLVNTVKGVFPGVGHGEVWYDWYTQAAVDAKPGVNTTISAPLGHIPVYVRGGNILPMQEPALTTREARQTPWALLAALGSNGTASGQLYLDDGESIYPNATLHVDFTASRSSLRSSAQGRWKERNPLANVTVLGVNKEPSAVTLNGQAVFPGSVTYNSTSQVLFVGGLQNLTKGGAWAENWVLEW

[5] = target: Oligo-1,6-glucosidase IMA1 (Saccharomyces cerevisiae S288c) (UniProt P53051); assay: Inhibition of yeast alpha-glucosidase at 1000 uM
[6] = organism: Rattus norvegicus; assay: Inhibition of rat intestinal maltase alpha-glucosidase at 1000 uM
[7] = test system: Oryza sativa; assay: Inhibition of rice alpha-glucosidase at 1000 uM
[8] = test system: Rhizopus; assay: Inhibition of Rhizopus sp. amyloglucosidase at 1000 uM
[9] = test system: Aspergillus niger; assay: Inhibition of Aspergillus niger amyloglucosidase at 1000 uM
[10] = target: T2, Uncharacterized protein (Sus scrofa) (UniProt I3LIR5); assay: Inhibition of pig kidney alpha, alpha trehalase at 1000 uM
T2 sequence (whole entry): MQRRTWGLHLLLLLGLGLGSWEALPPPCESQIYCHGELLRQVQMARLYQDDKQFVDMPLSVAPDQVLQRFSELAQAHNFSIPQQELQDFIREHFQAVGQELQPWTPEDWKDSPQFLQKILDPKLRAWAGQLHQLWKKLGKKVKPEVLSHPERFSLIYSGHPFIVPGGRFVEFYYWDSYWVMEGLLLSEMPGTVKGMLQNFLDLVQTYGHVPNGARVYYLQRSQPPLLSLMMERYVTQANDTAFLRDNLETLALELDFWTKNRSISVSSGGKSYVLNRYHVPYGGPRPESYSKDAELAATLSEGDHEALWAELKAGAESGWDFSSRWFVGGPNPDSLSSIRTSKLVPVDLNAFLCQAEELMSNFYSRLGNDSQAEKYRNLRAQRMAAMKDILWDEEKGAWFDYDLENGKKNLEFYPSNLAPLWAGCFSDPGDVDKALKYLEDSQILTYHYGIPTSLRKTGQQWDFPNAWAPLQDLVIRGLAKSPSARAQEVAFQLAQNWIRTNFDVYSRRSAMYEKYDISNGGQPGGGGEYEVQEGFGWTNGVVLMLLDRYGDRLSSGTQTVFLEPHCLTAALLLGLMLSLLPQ

[11] = target: T3, Beta-glucuronidase (Bos taurus) (UniProt A3KMY8); assay: Inhibition of bovine liver beta-glucuronidase at 1000 uM
T3 sequence (whole entry): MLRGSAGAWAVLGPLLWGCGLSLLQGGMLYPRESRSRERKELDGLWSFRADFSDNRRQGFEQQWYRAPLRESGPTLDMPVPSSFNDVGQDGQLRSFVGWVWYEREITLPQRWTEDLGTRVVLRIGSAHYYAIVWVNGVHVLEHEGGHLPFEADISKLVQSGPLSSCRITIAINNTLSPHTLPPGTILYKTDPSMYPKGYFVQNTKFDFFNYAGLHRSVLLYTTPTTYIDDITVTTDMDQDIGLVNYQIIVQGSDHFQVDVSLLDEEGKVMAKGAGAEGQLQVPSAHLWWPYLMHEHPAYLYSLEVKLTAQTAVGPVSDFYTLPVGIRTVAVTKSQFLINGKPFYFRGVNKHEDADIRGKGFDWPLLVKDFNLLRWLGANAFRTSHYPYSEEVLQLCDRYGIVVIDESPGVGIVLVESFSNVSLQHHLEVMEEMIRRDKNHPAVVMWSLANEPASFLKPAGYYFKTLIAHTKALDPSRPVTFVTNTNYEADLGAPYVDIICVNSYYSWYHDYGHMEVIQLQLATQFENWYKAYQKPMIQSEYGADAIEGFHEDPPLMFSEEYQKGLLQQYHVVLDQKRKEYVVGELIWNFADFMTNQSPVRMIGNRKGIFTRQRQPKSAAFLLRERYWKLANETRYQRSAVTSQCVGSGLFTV

[12] = test system: Helix pomatia; assay: Inhibition of snail beta-mannosidase at 1000 uM
[13] = test system: Canavalia ensiformis; assay: Inhibition of jack beans alpha-mannosidase at 1000 uM

Alpha-galactosidase (Coffea arabica), sequence (Q42656 16-378 limits assumed): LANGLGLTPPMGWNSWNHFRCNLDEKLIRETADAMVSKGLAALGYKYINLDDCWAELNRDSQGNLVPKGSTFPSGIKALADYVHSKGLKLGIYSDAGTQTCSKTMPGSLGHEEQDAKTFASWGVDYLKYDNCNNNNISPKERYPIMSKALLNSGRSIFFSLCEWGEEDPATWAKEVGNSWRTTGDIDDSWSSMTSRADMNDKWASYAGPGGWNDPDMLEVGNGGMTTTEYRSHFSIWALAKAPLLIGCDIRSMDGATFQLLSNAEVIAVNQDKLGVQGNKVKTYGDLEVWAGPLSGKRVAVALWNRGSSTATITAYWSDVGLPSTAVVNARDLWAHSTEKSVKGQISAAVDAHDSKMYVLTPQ
Oligo-1,6-glucosidase IMA1 (Saccharomyces cerevisiae S288c), sequence (P53051 whole entry): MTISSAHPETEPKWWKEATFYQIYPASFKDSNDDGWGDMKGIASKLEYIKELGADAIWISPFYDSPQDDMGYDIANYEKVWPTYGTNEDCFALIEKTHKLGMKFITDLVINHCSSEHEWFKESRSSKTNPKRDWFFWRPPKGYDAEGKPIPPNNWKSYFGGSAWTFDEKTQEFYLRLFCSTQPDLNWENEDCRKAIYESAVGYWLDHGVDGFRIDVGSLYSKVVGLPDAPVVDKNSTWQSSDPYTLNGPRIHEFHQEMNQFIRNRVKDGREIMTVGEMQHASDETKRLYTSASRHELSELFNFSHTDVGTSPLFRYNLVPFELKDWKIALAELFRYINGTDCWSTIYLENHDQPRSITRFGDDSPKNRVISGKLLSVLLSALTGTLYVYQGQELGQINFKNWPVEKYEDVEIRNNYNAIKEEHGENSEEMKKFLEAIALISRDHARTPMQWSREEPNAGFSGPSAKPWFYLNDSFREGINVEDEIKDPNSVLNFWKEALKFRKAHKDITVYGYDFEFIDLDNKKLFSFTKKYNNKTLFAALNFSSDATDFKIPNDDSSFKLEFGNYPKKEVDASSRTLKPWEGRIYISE

inhibition [1] [%]	inhibition [2] [%]	inhibition [3] [%]	inhibition [4] [%]	inhibition [5] [%]	inhibition [6] [%]	inhibition [7] [%]	inhibition [8] [%]	inhibition [9] [%]	inhibition [10] [%]	inhibition [11] [%]	inhibition [12] [%]	inhibition [13] [%]	SMILES
8.7	0	16.9	0	9	3.3	0	0	1.9	0	0	0	5.1	CC[C@H]1N[C@@H](CO)[C@@H](O)[C@H](O)[C@H]1O
10.4	0	42.6	1.4	40	0	0	0	0	0	0	1.3	5.1	CCC[C@@H]1N[C@@H](CO)[C@@H](O)[C@H](O)[C@H]1O
3.7	0	21.4	0	2	0	1.7	3.4	4.1	4.9	0.5	0.3	0.4	CC[C@@H]1N[C@H](CC)[C@H](O)[C@@H](O)[C@@H]1O
7.5	0	48.7	0.2	23.5	13.7	0	0	0	0	0.1	0	11	CC[C@@H]1NC[C@@H](O)[C@@H](O)[C@H](O)[C@H]1O
1.2	0	5.1	0	0	0	1	0	0.8	3.9	0.1	0	0	CC[C@H]1NC[C@@H](O)[C@@H](O)[C@H](O)[C@H]1O
0.6	0	33.5	6.1	0	0	0	0	0	6	0.8	0	0	CC[C@@H]1N[C@@H](CO)[C@@H](O)[C@H](O)[C@H]1O
